Results reported in PubChem BioAssay AID1508591.

conditions: rat; liver microsomes; pH 7.4; 15.0 min; 1.0 µM

Going from `CCc1ccc(CNc2ccc3c(c2)ncn3C(C)(C)C)cc1` to `Cc1ccc(CNCc2cn[nH]c2-c2ccc(C)cc2)cc1`, the half-life falls from 9.8 min to 1.34 min (7.3-fold).

First: Cc1sc2ncnc(Sc3nnnn3-c3ccccc3)c2c1-c1ccccc1
Second: CC(=O)c1cccc(-c2csc3ncnc(Sc4nnnn4C)c23)c1
The half-life of the first is 2.1-fold lower: 1.5 min for the first, 3.08 min for the second.

`COc1cccc(C(=O)Nc2ccc3oc(-c4ccc5ccccc5c4)nc3c2)c1` and `O=C(Nc1ccc(C(=O)Nc2nccs2)cc1)c1ccc2ccccc2c1` are within 1.5-fold of each other in half-life: 27.9 min for the first, 23 min for the second.

`CCOc1ccccc1N(CC(=O)N1CCOCC1)S(=O)(=O)c1ccc(SC)cc1` and `CCOc1ccc(NC(=O)c2nc(S(=O)(=O)Cc3ccccc3F)ncc2Cl)cc1` are within 1.5-fold of each other in half-life: 1.45 min for the first, 1.43 min for the second.

Compared with `COc1cc(Nc2nc(-c3ccncc3)nc3ccccc23)ccc1N1CCN(C)CC1`, `CC1CN(c2ccc(Nc3nc(-c4ccncc4)nc4ccccc34)cc2F)CC(C)O1` (configuration not stated) is 2.2-fold lower in half-life: 11 min for the first, 5 min for the second.

`COc1ccc(-n2nc(C)c([C@@H]3C=C[C@@H](NCc4ccc(F)cc4)C3)c2C)cc1` and `COc1ccc(-n2nc(C3CCN(C(=O)Cc4ccc(F)cc4)CC3)[nH]c2=O)cc1` are within 1.5-fold of each other in half-life: 6.66 min for the first, 7.87 min for the second.

Compared with `CCCCNc1oc(-c2cccc3ccccc23)nc1C#N`, `CNc1oc(-c2cccc(Cl)c2Cl)nc1C#N` is 1.7-fold higher in half-life: 5.78 min for the first, 9.65 min for the second.

Compared with `COc1cc([C@@H](CC(=O)O)c2ccc(C)c(CN3C[C@@H](C)Oc4ccccc4S3(=O)=O)c2)cc2nnn(C)c12`, `Cc1ccc(-c2cc(C(=O)Nc3ccc(S(=O)(=O)N(C)C)cc3)c3ccccc3n2)cc1C` is 4.7-fold lower in half-life: 16 min for the first, 3.4 min for the second.

`Cc1ccc(NC(=O)N(Cc2cn(C)c3ccccc23)C2CCCCC2)cc1C` and `COc1ccc(NC(=O)c2c(C)cccc2C)cc1[S+](=O)([O-])N1CCCCCC1` are within 1.5-fold of each other in half-life: 1.95 min for the first, 1.8 min for the second.

Going from `Cc1noc(C)c1C(=O)N1CCC2(CC1)CCN(C(c1ccccc1)c1ccccc1)CC2` to `O=C(c1cccc(F)c1)N1CCC2(CCN(Cc3cc(C(F)(F)F)cc(C(F)(F)F)c3)CC2)CC1`, the half-life rises from 9.4 min to > 30 min.

Compared with `O=[N+]([O-])c1ccc(/C=N/n2c(CO)nc3ccccc32)s1`, `CCCCCn1c(CCCNC(=O)c2ccccc2OC)nc2ccccc21` is 16-fold lower in half-life: 21 min for the first, 1.31 min for the second.

`Cc1ccc(S(=O)(=O)Nc2cccnc2C(=O)Nc2nc(-c3ccccc3)cs2)cc1` and `CCc1ccc(S(=O)(=O)Nc2cnccc2C(=O)Nc2nc(-c3ccccc3)cs2)cc1` are within 1.5-fold of each other in half-life: 4.2 min for the first, 4.4 min for the second.

First: O=S(=O)(Nc1cnc2ccccc2c1)c1ccc(NCc2ccc(Br)cc2O)cc1
Second: O=S(=O)(Nc1ccccc1)c1ccc(NCc2cccc(Cl)c2O)cc1
The half-life of the first is 8.2-fold higher: 18 min for the first, 2.2 min for the second.

`Cc1cnc(-c2ccccc2C(F)F)nc1NCc1ccc(-c2cccnc2)cc1` and `Cc1cnc(-c2ccccc2C2COC2)nc1NCc1ccc(-c2cccnc2)cc1` are within 1.5-fold of each other in half-life: 8.1 min for the first, 12 min for the second.

Going from `Cc1cnc(-c2ccccc2C(C)C)nc1NCc1ccc(-n2ccnn2)cc1` to `CC(C)c1ccccc1-c1ncc(F)c(NC(C)(C)c2ccc(-n3ccnn3)cc2)n1`, the half-life falls from 10.3 min to 1.6 min (6.4-fold).

`N#Cc1ccccc1-c1csc(N2CCC(C(N)=O)CC2)n1` and `NC(=O)C1CCN(c2nc(-c3cc4ccccc4o3)cs2)CC1` are within 1.5-fold of each other in half-life: 3.76 min for the first, 4.21 min for the second.

First: Cc1noc(C)c1S(=O)(=O)Nc1cnccc1C(=O)Nc1nc(-c2ccccc2)cs1
Second: O=C(Nc1nc(-c2ccccc2)cs1)c1ccncc1NS(=O)(=O)c1ccccc1
The half-life of the first is higher: > 30 min for the first, 13 min for the second.

First: Cc1ccc(-c2cc(C(=O)Nc3ccc(S(=O)(=O)NCc4nccs4)cc3)c3ccccc3n2)cc1C
Second: Cc1ccc(S(=O)(=O)Nc2cnccc2C(=O)Nc2nc(-c3nc4ccccc4s3)cs2)cc1
The half-life of the first is 4.1-fold lower: 5.8 min for the first, 24 min for the second.

Going from `CCOc1ccc(CCNC(=O)c2ccc(C(=O)c3ccccc3)cc2)cc1OCC` to `COCCNC(=O)c1ccc(-c2ncc3cnc(-c4cccc(F)c4)cn23)cc1`, the half-life rises from 2.8 min to > 30 min.

Compared with `O=C1CCCC2=C1C(C1CCCCC1Cl)N=C(NC1NC3CCCCC3S1)N2` (configuration not stated), `Cc1ccc(S(=O)(=O)NC2CCCCC2)cc1` is 11-fold lower in half-life: 10.9 min for the first, 1 min for the second.

`Cc1ccc(C(=O)Nc2cccc(C(F)(F)F)c2)cc1Nc1nc(-c2cccnc2)nc2c1cnn2C` and `Fc1cc(-c2nc(Nc3ccc(F)c(F)c3)c3ccccc3n2)ccn1` cannot be ordered by half-life: > 30 min for the first, > 30 min for the second.

First: CCN(CC)S(=O)(=O)c1ccc2oc(C(=O)Nc3ccc(Br)cc3F)c(C)c2c1
Second: O=C(O)Cc1ccc2oc(-c3ccc(NC(=O)/C=C/c4ccc(Br)cc4)c(F)c3)nc2c1
The half-life of the first is lower: 7.91 min for the first, > 30 min for the second.

Going from `O=C(NCc1cccnc1)c1nc(-c2ccc(Cl)nc2)c2cnccn12` to `CC(C)NC(=O)c1nc(-c2ccc(Cl)nc2)c2cnccn12`, the half-life rises from 26.6 min to > 30 min.

`CCOc1ccc(N2CC(c3nc(-c4ccccn4)no3)CC2=O)cc1` (configuration not stated) and `O=C(Nc1nc(-c2ccccn2)cs1)c1cccc(-n2cnnn2)c1` cannot be ordered by half-life: > 30 min for the first, > 30 min for the second.

Compared with `COc1ccc(NC(=O)c2cc(-c3ccc[nH]3)n[nH]2)cc1OC`, `CCc1cccc(NC(=O)c2cc(-c3ccc[nH]3)n[nH]2)c1` is lower in half-life: > 30 min for the first, 6.57 min for the second.

Going from `NC(=O)c1cccc(-c2cc(Nc3ccc(OC(F)(F)F)cc3)ncn2)c1` to `c1ccc(Nc2cc(-c3ccoc3)ncn2)cc1`, the half-life falls from > 30 min to 8.6 min.

`O=C(NCCc1cnc[nH]1)c1ccc(-c2ncc3cnc(-c4cccc(F)c4)cn23)cc1` and `O=C(Nc1nc(-c2ccc(F)cc2)cs1)c1ccncc1NS(=O)(=O)c1ccccc1Cl` cannot be ordered by half-life: > 30 min for the first, > 30 min for the second.

`COc1ccc(NC(=O)c2[nH]c(C)cc2C)cc1S(=O)(=O)Nc1ccc(Br)cc1` and `COc1ccc(NC(=O)c2[nH]c(C)c(C(C)=O)c2C)cc1S(=O)(=O)Nc1ccc(C#N)cc1` cannot be ordered by half-life: > 30 min for the first, > 30 min for the second.

Compared with `CCCCCCCCc1ccc(CCC(N)(CO)CO)cc1`, `O=C(N[C@@H](Cc1ccccc1)C(=O)CCl)OCc1ccccc1` is lower in half-life: > 30 min for the first, 14 min for the second.

Compared with `CCOc1cc(-c2nccc3cc(OC)c(OC)cc23)cc(OCC)c1OCC`, `COc1ccc(C2c3c(oc4ccc(Cl)cc4c3=O)C(=O)N2CCCN(C)C)cc1OC` (configuration not stated) is higher in half-life: 2.8 min for the first, > 30 min for the second.

Compared with `Cc1cnc(-c2ccccc2C(F)F)nc1NCC1CN(c2cnccn2)C1`, `CSc1ccccc1-c1ccc(Nc2nc(-c3ccncc3)nc3ccccc23)cc1F` is 2.8-fold higher in half-life: 1.8 min for the first, 5.1 min for the second.

First: O=C(Nc1ccccc1)C1CCN(c2nc(-c3ccc(Br)cc3)cs2)CC1
Second: NC(=O)C1CCN(c2nc(-c3ccc(OC(F)(F)F)cc3)cs2)CC1
The half-life of the first is 5-fold lower: 1.53 min for the first, 7.66 min for the second.

Going from `Cc1ccnc(NC(=S)N2CCN(c3cc(Cl)cc(Cl)c3)CC2)c1` to `Cc1ccnc(NC(=S)N2CCN(c3ccc(Cl)c(Cl)c3)CC2)c1`, the half-life falls from > 30 min to 24 min.

First: CC(=O)OC[C@]12CCC(C)=C[C@H]1O[C@@H]1[C@H](O)[C@@H](OC(C)=O)[C@@]2(C)[C@]12CO2
Second: COC(=O)[C@@]12OC[C@]34[C@H]([C@@H](O)[C@@H]1O)[C@@]1(C)CC(=O)C(O)=C(C)[C@@H]1C[C@H]3OC(=O)[C@H](OC(=O)/C=C(\C)C(C)C)[C@@H]24
The half-life of the first is higher: > 30 min for the first, 10.1 min for the second.

Going from `Cn1nnnc1SCCCNCc1cccc(OCc2ccccc2Cl)c1` to `OCCN1CCN(CCCN2c3ccccc3Sc3ccc(Cl)cc32)CC1`, the half-life rises from 1.72 min to 4.34 min (2.5-fold).

Going from `Cc1cc(NS(=O)(=O)c2ccc(NC(=O)Cc3ccc(Cl)c(Cl)c3)cc2)no1` to `COc1cccc(CNc2ccc(S(=O)(=O)Nc3cccnc3)cc2)c1O`, the half-life rises from 9.7 min to 15 min (1.5-fold).

Compared with `CC(C)NC(=O)N1C[C@@H]2C[C@H](C1)c1ccc(-c3cccc(C(F)(F)F)c3)c(=O)n1C2`, `O=C(C1CC(=O)N(c2n[nH]c3ccccc23)C1)N1CCC(c2noc3cc(F)ccc23)CC1` (configuration not stated) is 1.5-fold higher in half-life: 12.5 min for the first, 19.1 min for the second.

Going from `O=[S+]([O-])(Nc1cccc2cccnc12)c1ccc(NCc2ccc(Cl)cc2O)cc1` to `O=[S+]([O-])(Nc1ccc2ccccc2c1)c1ccc(NCc2ccc(Cl)cc2O)cc1`, the half-life rises from 2.4 min to 21 min (8.8-fold).

Compared with `CCOc1ccccc1C(=O)Nc1ccncc1C(=O)Nc1cccc(S(=O)(=O)C(F)(F)F)c1`, `O=C(Nc1nc(-c2ccccc2)cs1)c1ccncc1NS(=O)(=O)c1ccc2ccccc2c1` is lower in half-life: > 30 min for the first, 8.4 min for the second.

Compared with `Cc1cc(C)c(C(=O)Nc2cccc([S+](=O)([O-])N3CCCCCC3)c2)[nH]1`, `N#Cc1cccc(NC(=O)c2sc3nc4c(cc3c2N)N2CCC4CC2)c1` is 15-fold higher in half-life: 1.7 min for the first, 25.6 min for the second.

Going from `CC(C)(O)C=CC(=O)[C@](C)(O)[C@H]1[C@H](O)C[C@]2(C)[C@@H]3CC=C4[C@@H](C=C(O)C(=O)C4(C)C)[C@]3(C)C(=O)C[C@@]12C` to `CCCc1cc(=O)oc2c3c(c4c(c12)OC(C)(C)C=C4)OC(C)C(C)C3O` (configuration not stated), the half-life falls from > 30 min to 13.2 min.

Going from `Cc1ccc(/C=C/c2nc3ccccc3n2S(=O)(=O)c2cccc(Cl)c2)cc1` to `CCc1ccc(C2Sc3ccccc3NC3=C2C(=O)c2ccccc23)cc1` (configuration not stated), the half-life falls from 17.6 min to 1.81 min (9.7-fold).

First: COC(=O)[C@H](Cc1ccc(O[S+](=O)([O-])c2cccc3cnccc23)cc1)N[S+](=O)([O-])c1ccc2cnccc2c1
Second: Nc1ccc(CNc2ccc([S+](=O)([O-])Nc3nccs3)cc2)c(O)c1
The half-life of the first is lower: 1 min for the first, > 30 min for the second.

Compared with `Cc1ccnc(NC(=O)C2CC(=O)N(c3n[nH]c4cc(Br)ccc34)C2)c1` (configuration not stated), `NC(=O)C1CCN(c2nccc(-c3ccc4c(c3)OCCCO4)n2)CC1` is lower in half-life: > 30 min for the first, 4.28 min for the second.

Going from `Cc1ccccc1C(=O)N1CCC(C(=O)N2CCC(N3Cc4ccccc4C3=O)CC2)CC1` to `Cc1ccccc1Nc1c(-c2ccccc2O)nc2sccn12`, the half-life falls from 11.8 min to 2.71 min (4.4-fold).

Compared with `CSc1ccc(-c2cnc(N3CCC(C(N)=O)CC3)s2)cc1`, `NC(=O)Nc1cc(-c2ccc(CN3CCOCC3)cc2)sc1C(N)=O` is higher in half-life: 1.53 min for the first, > 30 min for the second.

First: N#CC1(c2ccc(NC(=O)c3cccnc3NCc3ccncc3)cc2)CCCC1
Second: O=C(Nc1ccccc1O)c1ccc(NC(=O)C2CC2)cc1
The half-life of the first is lower: 9.14 min for the first, > 30 min for the second.

First: Oc1ccccc1NCC(O)Cn1ccc2ccccc21 (configuration not stated)
Second: CC1=C(C(=O)Nc2nncs2)C(c2ccccc2Br)N=C(Nc2nc3ccccc3o2)N1 (configuration not stated)
The half-life of the first is lower: 2.37 min for the first, > 30 min for the second.

`CCN1CCN(C(=O)c2cc(-c3ccc(F)cc3)c3nncn3n2)CC1` and `O=C(c1ccc2c(c1)OCO2)N1CCC(Cc2nc(-c3cnccn3)no2)CC1` cannot be ordered by half-life: > 30 min for the first, > 30 min for the second.

Compared with `COc1ccc(N(C)C(=O)c2cc3c(s2)-c2ccccc2OC3)cc1`, `Cc1cc(-c2nc(Nc3ccc(F)c(F)c3)c3ccccc3n2)cc(C)n1` is higher in half-life: 7.6 min for the first, > 30 min for the second.

Compared with `O=C1CCCCc2cc(O)c(O)cc21`, `O=C(COC(=O)CCC(=O)c1cccs1)NCc1ccco1` is lower in half-life: > 30 min for the first, 1 min for the second.
